Data on two compounds can be found in US11096923B2, “Pharmaceutical composition containing polymyxin B/trimethoprim based therapeutics” (University of Rochester, priority 2016, dated 2021).

In assay [1] the test system is S. aureus strain UAMS-1. It counts as cell-based, Staphylococcus aureus. The conditions noted are these: 1×MIC, laser microbial growth monitor over 40 hours. Here is the method: Spontaneous resistance to the indicated test agent(s) was measured for P. aeruginosa strain PA01 and S. aureus strain UAMS-1 using two liquid culture approaches. […] Growth was measured using the BacterioScan s216Dx laser microbial growth monitor, with optical measurements taken every 3 minutes over 40 hours. Following 40 hours, samples were plated for to measure viable colony forming units and re-tested for drug susceptibility.
To determine if these colonies represented untreated cells vs. resistant cells, 8 individual colonies from each treatment condition were randomly selected and tested for MICs.
Using an automated laser microbial growth monitor, the optical profiles of these cultures were measured continuously over time. […] Again 8 colonies were selected at random from each treatment group.

The subject of assay [2] is S. aureus UAMS-1 biofilms. As to the kind of experiment: Biofilm susceptibility. It counts as cell-based, Staphylococcus aureus. The conditions noted are these: established S. aureus biofilm. The source says:
Bacterial strains used in these studies include the conventional laboratory strains Pseudomonas aeruginosa PA01 and Staphylococcus aureus UAMS-1, both of which are antibiotic susceptible and capable of forming robust biofilms. See […], Thomas J R, Nelson […]. Role of the accessory gene regulator (agr) in pathogenesis of staphylococcal osteomyelitis. Infection and immunity 1995; 63:3373-3380. Seven clinical keratitis isolates of Pseudomonas aeruginosa, were collected from the Flaum Eye Institute, Rochester N.Y. and 25 clinical isolates of Staphylococcus aureus from geographically distinct regions of the country where purchased from International Health Management Associates (IHMA; Schaumburg, Ill.). For experiments requiring planktonic cultures, the indicated organism was grown overnight in Luria-Bertani broth (LB; […] Biofilms were established by inoculating individual wells of flat-bottom polystyrene plates (Falcon, Corning Life Sciences; Durham, N.C.) with overnight cultures of the indicated organism into 200 ul of fresh LB to a final concentration of 1×10^7 CFU ml^-1. Plates were placed in a 37° C.-humidified incubator for 72 hours to allow static biofilm formation. Non-adherent cells were aspirated and biofilms were washed twice with phosphate-buffered saline prior to each experiment. […] After 24 hrs the remaining media and non-adherent cells were removed, biofilms were suspended in 0.8% NaCl and plated to quantify surviving bacteria. […] Biofilms were treated in increasing increments ranging from 0 to 64×MIC.

Assay [3] relates to P. aeruginosa biofilm. Also on record: key: Killing (+) of established biofilms. The conditions noted are these: established biofilms; adenylate kinase reporter; Blanchard et al., 2016; cited from earlier work.
The test system of assay [4] is planktonic S. aureus cells. As to the kind of experiment: Antimicrobial kill curves. The conditions noted are these: 2× MIC. It counts as cell-based, Staphylococcus aureus. Here is the method: Overnight cultures of the indicated organism were used to inoculate (1:100 dilution) 100 ml of fresh media and grown to mid-exponential phase. […] Aliquots were taken at 1, 2, 3, 4, and 24 hours, serial diluted and plated for colony forming units.

For assay [5], the system named is P. aeruginosa. Nature of the assay: MIC of clinical P. aeruginosa ocular isolates (antibiotic susceptibility profiles). As to conditions: Pseudomonas aeruginosa, read-out: Minimum Inhibitory Concentration. The assay is classed as cell-based, Pseudomonas aeruginosa. The source says: A series of genotyping and biological assays were used as a preliminary means to evaluate the clonality of clinical P. aeruginosa isolates collected, as follows. Genomic DNA was purified from each isolate using Qiagen DNeasy kits (Hilden, Germany) and used as a template for polymerase chain reactions to detect the presence of the virulence factors exoS, exoY, exoU, exoT, and perV using previously published primers (Table 1). See Allewelt M, Coleman F T, Grout M, Priebe G P, Pier G B. Acquisition of expression of the Pseudomonas aeruginosa ExoU cytotoxin leads to increased bacterial virulence in a murine model of acute pneumonia and systemic spread. Infection and immunity 2000; 68:3998-4004, Lomholt J A, Poulsen K, Kilian M. Epidemic population structure of Pseudomonas aeruginosa: evidence for a clone that is pathogenic to the eye and that has a distinct combination of virulence factors. Infection and immunity 2001; 69, and Ledbetter E C, Mun J J, Kowbel D, Fleiszig S M. Pathogenic phenotype and genotype of Pseudomonas aeruginosa isolates from spontaneous canine ocular infections. Investigative ophthalmology & visual science 2009; 50. […] See Institute C. Performance Standards for Antimicrobial Susceptibility Testing: Twenty-fifth Informational Supplement. Each isolate's ability to form biofilms was quantified. To do so, wells of a polystyrene plate containing 72-hour established biofilms were washed with 0.8% NaCl to remove non adherent cells and stained with crystal violet. To quantify biofilm staining, plates were washed 3 times with H2O, stain was suspended in 30% glacial acetic acid and the optical density (OD600nm) of each well was determined using an automated plate reader, as previously described. See Jacobs A C, Blanchard C E, Catherman S C, Dunman P M, Murata Y. An ribonuclease T2 family protein modulates Acinetobacter baumannii abiotic surface colonization. PloS one 2014; 9.

Where two headings read alike, the source gives them in different places.

On to `CO[C@H]1/C=C/O[C@@]2(C)Oc3c(C)c(O)c4c(O)c(c(/C=N/N5CCN(C)CC5)c(O)c4c3C2=O)NC(=O)/C(C)=C\C=C\[C@H](C)[C@H](O)[C@@H](C)[C@@H](O)[C@@H](C)[C@H](OC(C)=O)[C@@H]1C` [Rifampicin, rifampicin], for which, in assay [1], the “start of outgrowth of treated culture” value was found to be 8 h. Besides, in assay [2] (24 hrs treatment, 32×MIC), the “reduction in biofilm-associated CFU” value worked out at 4 log.

As for `NC[C@H]1O[C@H](O[C@H]2[C@H](O)[C@@H](O[C@H]3O[C@H](CO)[C@@H](O)[C@H](N)[C@H]3O)[C@H](N)C[C@@H]2N)[C@H](N)C[C@@H]1O` [Tobramycin, tobramycin], in assay [3], the “P. aeruginosa biofilm AK Signal” value is “+”. Also, the “reduction in CFU at 24 hours” value in assay [4] was found to be 6 log. Moreover, the MIC amounted to 0.24 µg/mL in assay [5] (P. aeruginosa ocular isolate RW01 (cornea)); 0.24 µg/mL in assay [5] (P. aeruginosa ocular isolate RW02 (cornea)); 0.24 µg/mL in assay [5] (P. aeruginosa ocular isolate RW03 (cornea)); 0.48 µg/mL in assay [5] (P. aeruginosa ocular isolate RW04 (conjunctiva)); 0.48 µg/mL in assay [5] (P. aeruginosa ocular isolate RW05 (cornea)); 0.24 µg/mL in assay [5] (P. aeruginosa ocular isolate RW06 (cornea)). The MIC in assay [5] (P. aeruginosa ocular isolate RW07 (cornea)) turned out to be 0.24 µg/mL. Besides, the “activity against biofilm-associated cells” value in assay [2] (any concentration tested) is on record as “neither tobramycin, polymyxin B/trimethoprim nor their combination displayed significant activity”.
